{"source": "patent US20090105218A1", "about": "“CRTH2 Receptor Ligands For Therapeutic Use” (7TM PHARMA A/S, priority 2004, published 2009)", "data": [{"molecular_target": "T1, human CRTH2 receptor (Homo sapiens, UniProt Q9Y5Y4, V204A)", "T1 construct": "expressed in transfected cells; host or cells: COS-7 (transient transfection)", "T1 sequence (Q9Y5Y4 1-395 V204A)": "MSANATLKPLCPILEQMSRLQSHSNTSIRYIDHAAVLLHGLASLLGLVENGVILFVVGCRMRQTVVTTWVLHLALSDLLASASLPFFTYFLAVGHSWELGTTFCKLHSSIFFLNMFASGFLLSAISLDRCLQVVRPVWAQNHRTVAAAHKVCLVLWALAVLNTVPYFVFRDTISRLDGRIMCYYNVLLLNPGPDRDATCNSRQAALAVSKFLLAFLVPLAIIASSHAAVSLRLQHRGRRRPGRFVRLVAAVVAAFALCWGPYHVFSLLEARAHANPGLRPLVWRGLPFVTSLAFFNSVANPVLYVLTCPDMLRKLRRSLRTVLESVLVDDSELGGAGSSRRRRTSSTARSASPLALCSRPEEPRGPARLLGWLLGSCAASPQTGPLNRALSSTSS", "assay": "CRTH2 receptor binding assay ([3H]PGD2 competition on whole transfected cells)", "settings": "competition binding with 0.1 nM [3H]PGD2, whole cells expressing CRTH2, 3 h at 4° C.", "description": "Generation/origin of the cDNA Constructs. The coding sequence of the human CRTH2 receptor (genbank accession no NM_004778) was amplified by PCR from a human hippocampus cDNA library and inserted into the pcDNA3.1(+) expression vector (invitrogen) via 5′ HindIII and 3′ EcoRI. The sequence identity of the construct was verified by restriction endonuclease digests and sequencing in both directions on an ABI Prism (Applied Biosystems, Foster City, Calif.).\nCell Culture and Transfection. COS-7 cells were grown in Dulbecco's modified Eagle's medium (DMEM) 1885 supplemented with 10% fetal bovine serum, 100 units/ml penicillin, […] streptomycin, and kept at 37° C. in a 10% CO2 atmosphere. HEK293 cells were maintained in Minimum Essential medium (MEM) supplemented with 10% (v/v) heat inactivated fetal calf serum (HIFCS), 2 mM Glutamax™-I, 1% non essential amino acids (NEAA), 1% sodium pyruvate and 10 μg/ml gentamicin. For binding experiments, COS7 cells were transiently transfected with the CRTH2 receptor using a calcium phosphate-DNA coprecipitation method with the addition of chloroquine (as described by Holst B, Hastrup H, Raffetseder U, Martini L, Schwartz T W. J Biol. Chem. 2001 Jun. 8; 276(23):19793-9.)\nBinding assay. 24 h after transfection COS-7 cells were seeded into 96 well plates at a density of 30.000 cells/well. Competition binding experiments on whole cells were then performed about 18-24 h later using 0.1 nM [^3H]PGD2 (NEN, 172 Ci/mmol) in a binding buffer consisting of HBSS (GIBCO) and 10 mM HEPES. Competing ligands were diluted in DMSO which was kept constant at 1% (v/v) of the final incubation volume. Total and nonspecific binding were determined in the absence and presence of 10 μM PGD2. Binding reactions were routinely conducted for 3 h at 4° C. and terminated by 2 washes (100 μl each) with ice cold binding buffer. Radioactivity was determined by liquid scintillation counting in a TOPCOUNTER (Packard) following over night incubation in Microscint 20. Stable HEK293 cells were seeded at a density of 30.000 cells/well 18-24 h prior to the binding assay which was performed essentially as described for COS7 cells above. Determinations were made in duplicates.\nCurve analysis was performed with the GraphPadPrism software 3.0 (Graphpad Prism Inc., San Diego, USA) and IC50 values were calculated as a measure of the antagonistic potencies.", "units": {"IC50": "nM"}, "values": [{"smiles": "COc1ccc(NS(=O)(=O)c2cc(C(=O)Nc3ccccc3C(=O)O)ccc2C)cc1", "note": "[B51]", "IC50": "500 to 5000"}, {"smiles": "O=C(Nc1ccccc1C(=O)O)c1cccc(S(=O)(=O)Nc2ccc(Br)cc2)c1", "note": "[B55]", "IC50": "< 500"}, {"smiles": "O=C(Nc1ccc(Br)cc1C(=O)O)c1cccc(S(=O)(=O)Nc2ccc(Br)cc2)c1", "note": "[B15, 5-Bromo-2-[3-(4-bromophenylsulfamoyl)benzoylamino]benzoic acid]", "IC50": "< 500"}, {"smiles": "O=C(COc1ccc(Cl)cc1)Nc1cccc(C(=O)Nc2ccccc2C(=O)O)c1", "note": "[B1, 2-{3-[2-(4-Chlorophenoxy)acetylamino]benzoylamino}benzoic acid]", "IC50": "< 500"}, {"smiles": "O=C(Nc1ccccc1C(=O)O)c1ccc(Br)c(S(=O)(=O)Nc2ccc(I)cc2)c1", "note": "[B23, 2-[4-Bromo-3-(4-iodophenylsulfamoyl)benzoylamino]benzoic acid]", "IC50": "< 500"}, {"smiles": "Cc1cccc(NS(=O)(=O)c2ccc(Cl)c(C(=O)Nc3ccccc3C(=O)O)c2)c1", "note": "[B57]", "IC50": "500 to 5000"}, {"smiles": "O=C(Nc1ccc(Br)cc1C(=O)O)c1cccc(S(=O)(=O)Nc2ccc(Cl)cc2)c1", "note": "[B28, 5-Bromo-2-[3-(4-chlorophenylsulfamoyl)benzoylamino]benzoic acid]", "IC50": "< 500"}, {"smiles": "COc1ccc(OCC(=O)Nc2cccc(C(=O)Nc3ccccc3C(=O)O)c2)cc1", "note": "[B39]", "IC50": "500 to 5000"}, {"smiles": "O=C(Nc1ccccc1C(=O)O)c1cccc(S(=O)(=O)Nc2ccccc2)c1", "note": "[B47]", "IC50": "500 to 5000"}, {"smiles": "O=C(Nc1ccccc1C(=O)O)c1ccc(Br)c(S(=O)(=O)NCc2ccccc2)c1", "note": "[B50]", "IC50": "500 to 5000"}, {"smiles": "Cc1ccc(C(=O)Nc2ccccc2C(=O)O)cc1S(=O)(=O)N1CCCCC1", "note": "[B72]", "IC50": "< 500"}, {"smiles": "O=C(Nc1ccccc1C(=O)O)c1cccc(S(=O)(=O)N2CCOCC2)c1", "note": "[B68]", "IC50": "> 5000"}, {"smiles": "O=C(Nc1ccc(O)cc1C(=O)O)c1cccc(NC(=O)c2ccco2)c1", "note": "[B44]", "IC50": "500 to 5000"}, {"smiles": "Cc1ccc(C(=O)Nc2ccccc2C(=O)O)cc1S(=O)(=O)Nc1ccc(Br)cc1", "note": "[B52]", "IC50": "< 500"}, {"smiles": "O=C(Nc1ccc(OC(F)(F)F)cc1)Nc1cccc(C(=O)Nc2ccccc2C(=O)O)c1", "note": "[B8, 2-{3-[3-(4-Trifluoromethoxyphenyl)ureido]benzoylamino}benzoic acid]", "IC50": "500 to 5000"}, {"smiles": "Cc1ccc(C(=O)Nc2ccccc2C(=O)O)cc1S(=O)(=O)Nc1cccc(Cl)c1", "note": "[B62]", "IC50": "< 500"}, {"smiles": "O=C(Nc1ccccc1C(=O)O)c1cc(S(=O)(=O)N2CCCC2)ccc1Cl", "note": "[B79]", "IC50": "500 to 5000"}, {"smiles": "O=C(COc1ccc(Cl)cc1Cl)Nc1cccc(C(=O)Nc2ccccc2C(=O)O)c1", "note": "[B3, 2-{3-[2-(2,4-Dichlorophenoxy)acetylamino]benzoylamino}-benzoic acid]", "IC50": "< 500"}, {"smiles": "Cc1c(S(=O)(=O)Nc2ccc(Br)cc2)csc1C(=O)Nc1ccccc1C(=O)O", "note": "[B25, 2-[4-(4-Bromophenylsulfamoyl)-3-methylthiophene-2-carbonylamino]-benzoic acid]", "IC50": "< 500"}, {"smiles": "O=C(Nc1ccc(Br)cc1C(=O)O)c1cccc(S(=O)(=O)Nc2ccc(Cl)nc2)c1", "note": "[B13, 5-Bromo-2-[3-(6-chloropyridin-3-ylsulfamoyl)benzoylamino]benzoic acid]", "IC50": "500 to 5000"}, {"smiles": "Cc1ccccc1NS(=O)(=O)c1cccc(C(=O)Nc2ccccc2C(=O)O)c1", "note": "[B53]", "IC50": "500 to 5000"}, {"smiles": "O=C(COCc1ccccc1)Nc1cccc(C(=O)Nc2ccccc2C(=O)O)c1", "note": "[B10, 2-[3-(2-Benzyloxyacetylamino)benzoylamino]benzoic acid]", "IC50": "500 to 5000"}, {"smiles": "CCCOc1cccc(C(=O)Nc2cccc(C(=O)Nc3ccccc3C(=O)O)c2)c1", "note": "[B41]", "IC50": "< 500"}, {"smiles": "Cc1c(S(=O)(=O)Nc2cccc(Oc3ccccc3)c2)csc1C(=O)Nc1ccccc1C(=O)O", "note": "[B22, 2-[3-Methyl-4-(3-phenoxyphenylsulfamoyl)thiophene-2-carbonylamino]-benzoic acid]", "IC50": "500 to 5000"}, {"smiles": "O=C(Nc1ccccc1C(=O)O)c1cccc(NS(=O)(=O)c2ccc(F)cc2)c1", "note": "[B7, 2-[3-(4-Fluoro-benzenesulfonylamino)benzoylamino]benzoic acid]", "IC50": "500 to 5000"}, {"smiles": "Cc1c(S(=O)(=O)Nc2ccc(OC(F)(F)F)cc2)csc1C(=O)Nc1ccccc1C(=O)O", "note": "[B20, 2-[3-Methyl-4-(4-trifluoromethoxyphenylsulfamoyl)thiophene-2-carbonylamino]benzoic acid]", "IC50": "< 500"}, {"smiles": "O=C(Nc1ccc(Cl)cc1C(=O)O)c1cccc(S(=O)(=O)Nc2ccc(Cl)cc2)c1", "note": "[B30, 5-Chloro-2-[3-(4-chlorophenylsulfamoyl)benzoylamino]benzoic acid]", "IC50": "< 500"}, {"smiles": "O=C(Nc1ccc(Br)cc1C(=O)O)c1cccc(S(=O)(=O)Nc2ccc(OC(F)(F)F)cc2)c1", "note": "[B14, 5-Bromo-2-[3-(4-trifluoromethoxyphenylsulfamoyl)benzoylamino]benzoic acid]", "IC50": "500 to 5000"}, {"smiles": "O=C(/C=C/c1ccc(OC(F)(F)F)cc1)Nc1cccc(C(=O)Nc2ccccc2C(=O)O)c1", "note": "[B2, 2-{3-[(E)-3-(4-Trifluoromethoxyphenyl)acryloylamino]benzoylamino}benzoic acid]", "IC50": "< 500"}, {"smiles": "Cc1ccc(C(=O)Nc2ccccc2C(=O)O)cc1S(=O)(=O)Nc1ccc(F)cc1", "note": "[B63]", "IC50": "500 to 5000"}, {"smiles": "O=C(Nc1ccccc1C(=O)O)c1cccc(NC(=O)C(c2ccccc2)c2ccccc2)c1", "note": "[B36]", "IC50": "< 500"}, {"smiles": "Cc1c(S(=O)(=O)Nc2ccc(Br)cc2)csc1C(=O)Nc1ccc(Br)cc1C(=O)O", "note": "[B27, 5-Bromo-2-[4-(4-bromophenylsulfamoyl)-3-methylthiophene-2-carbonylamino]benzoic acid]", "IC50": "< 500"}, {"smiles": "O=C(Nc1ccc(Cl)cc1C(=O)O)c1cccc(S(=O)(=O)Nc2ccc(F)cc2)c1", "note": "[B31, 5-Chloro-2-[3-(4-fluorophenylsulfamoyl)benzoylamino]benzoic acid]", "IC50": "< 500"}, {"smiles": "Cc1ccc(S(=O)(=O)N2CCOCC2)cc1C(=O)Nc1ccccc1C(=O)O", "note": "[B78]", "IC50": "> 5000"}, {"smiles": "CCN(CC)S(=O)(=O)c1cc(C(=O)Nc2ccccc2C(=O)O)ccc1Br", "note": "[B69]", "IC50": "500 to 5000"}, {"smiles": "C/C(=C\\c1ccccc1)C(=O)Nc1cccc(C(=O)Nc2ccccc2C(=O)O)c1", "note": "[B6, 2-[3-((E)-2-Methyl-3-phenylacryloylamino)benzoylamino]benzoic acid]", "IC50": "500 to 5000"}, {"smiles": "CCOc1ccc(NS(=O)(=O)c2cc(C(=O)Nc3ccccc3C(=O)O)ccc2C)cc1", "note": "[B64]", "IC50": "500 to 5000"}, {"smiles": "Cc1ccc(C(=O)Nc2ccccc2C(=O)O)cc1S(=O)(=O)Nc1ccc(I)cc1", "note": "[B59]", "IC50": "< 500"}, {"smiles": "O=C(CCc1ccccc1)Nc1cccc(C(=O)Nc2ccccc2C(=O)O)c1", "note": "[B4, 2-[3-(3-Phenylpropionylamino)benzoylamino]benzoic acid]", "IC50": "500 to 5000"}, {"smiles": "O=C(Nc1ccccc1C(=O)O)c1cc(S(=O)(=O)N2CCCCCC2)ccc1Cl", "note": "[B77]", "IC50": "500 to 5000"}, {"smiles": "CCCOc1ccc(C(=O)Nc2cccc(C(=O)Nc3ccccc3C(=O)O)c2)cc1", "note": "[B40]", "IC50": "< 500"}, {"smiles": "Cc1ccc(C(=O)Nc2ccccc2C(=O)O)cc1S(=O)(=O)N1CCCCCC1", "note": "[B75]", "IC50": "500 to 5000"}, {"smiles": "COc1ccc(C(=O)Nc2cccc(C(=O)Nc3ccccc3C(=O)O)c2)cc1OC", "note": "[B9, 2-[3-(3,4-Dimethoxybenzoylamino)benzoylamino]benzoic acid]", "IC50": "500 to 5000"}, {"smiles": "O=C(CSCc1ccccc1)Nc1cccc(C(=O)Nc2ccccc2C(=O)O)c1", "note": "[B42]", "IC50": "< 500"}, {"smiles": "Cc1ccc(C(=O)Nc2ccccc2C(=O)O)cc1S(=O)(=O)N1CCOCC1", "note": "[B71]", "IC50": "500 to 5000"}, {"smiles": "O=C(COc1ccc(Cl)cc1)Nc1cc(C(=O)Nc2ccc(I)cc2C(=O)O)ccc1Cl", "note": "[B12, 2-{4-Chloro-3-[2-(4-chloro-phenoxy)acetylamino]benzoylamino}-5-iodobenzoic acid]", "IC50": "500 to 5000"}]}]}
